# Tests used:
# [1] = target: T1, AgmE (Streptomyces angustmyceticus, UniProt A0A5J4LCM7); assay: HPLC and LC-MS, AMP formation; format: biochemical; conditions: 1 mM Mg2+, 50 mM PBS pH 7.5, 30 °C
# T1 construct: gene San01_08850; recombinant, overexpressed in and purified from E. coli BL21(DE3)
# T1 sequence (A0A5J4LCM7 1-178): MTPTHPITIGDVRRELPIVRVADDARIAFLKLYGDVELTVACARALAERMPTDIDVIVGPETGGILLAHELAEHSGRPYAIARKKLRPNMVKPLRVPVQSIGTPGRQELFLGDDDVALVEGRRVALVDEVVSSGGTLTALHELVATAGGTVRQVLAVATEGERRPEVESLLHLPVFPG
# [2] = target: T2, AgmA (Streptomyces angustmyceticus, UniProt A0A5J4L869); assay: HPLC and LC-MS, adenine release; format: biochemical; conditions: 50 mM Tris-Cl pH 7.5, 1 mM substrate, 30 °C, 2 h
# T2 construct: gene San01_08890; recombinant, overexpressed in and purified from E. coli BL21(DE3)
# T2 sequence (A0A5J4L869 1-193): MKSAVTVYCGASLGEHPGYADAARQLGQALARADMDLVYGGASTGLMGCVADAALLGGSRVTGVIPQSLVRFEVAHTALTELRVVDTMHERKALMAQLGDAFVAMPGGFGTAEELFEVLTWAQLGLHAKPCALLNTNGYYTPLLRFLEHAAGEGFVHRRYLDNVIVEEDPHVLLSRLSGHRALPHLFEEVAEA
# [3] = tested on: T3, AgmF; assay: HPLC dehydration assay; format: biochemical, Streptomyces angustmyceticus; conditions: dehydration to angustmycin A; kinetic assay conditions only in supplement
# T3 construct: recombinant, overexpressed in and purified from E. coli BL21(DE3)
structure (smiles),measurement,setting,value
O=P(O)(O)OC[C@H]1O[C@H](OP(=O)(O)OP(=O)(O)O)[C@H](O)[C@@H]1O [PRPP],"HPLC and LC-MS, AMP formation",[1]; co-substrate adenine,assayed in vitro with the substrates adenine and phosphoribosyl pyrophosphate (PRPP)
Nc1ncnc2c1ncn2[C@H]1C[C@H](O)[C@@H](COP(=O)(O)O)O1 [dAMP],"HPLC and LC-MS, adenine release",[2],AgmA is capable of consuming AMP/dAMP as a substrate
Nc1ncnc2[nH]cnc12 [adenine],"HPLC and LC-MS, AMP formation","[1]; co-substrate PRPP 1 mM, methods print adenosine instead of adenine",assayed in vitro with the substrates adenine and phosphoribosyl pyrophosphate (PRPP)
Nc1ncnc2c1ncn2[C@@H]1O[C@H](COP(=O)(O)O)[C@@H](O)[C@H]1O [AMP],"HPLC and LC-MS, adenine release",[2],AgmA is capable of consuming AMP/dAMP as a substrate
"Nc1ncnc2c1ncn2[C@]1(CO)O[C@H](CO)[C@@H](O)[C@H]1O [compound 2, angustmycin C]",Km,[3],1.38 ± 0.121 mM
